Data as given in patent US6235736A, “3-anilino-2-cycloalkenone derivatives” (Nikken Chemicals Co., Ltd., priority 1997, dated 2001).

Columns and labels:
[1] = system: TPA induced ear edema in mouse; assay: TPA induced mouse ear edema assay; assay type: in vivo, mouse (male ICR); conditions: 0.1 mg applied to right ear immediately after TPA; 6 hour
Experimental: Male ICR mice, 5 week old, were divided into groups of seven to eight. 2 μg of TPA (phorbor 12-ministate; Sigma Co.) in 20 μl acetone was applied to the inner and outer surface of right ear of each mouse to cause a reaction. 0.1 mg of compound was dissolved in 20 μl of a tetrahydrofuran-methanol mixture (mixture ratio 1:1) and the solution (20 μl) applied to the right ear immediately after TPA treatment. After 6 hour, the animals were sacrificed and right ear was punched out (.phi. […]) and weighed. The effect of comppund.was calculated as % inhibition as follows: [formula]

[2] = system: Type IV PDE; assay: PDE IV inhibitory activity (isozyme partially purified from rat neutrophils, 3H-cAMP substrate); assay type: biochemical; conditions: rat neutrophil PDE IV, 30° C., 30 minutes, read-out: PDE IV inhibiting action IC50
Experimental: Type I, III, IV, and V PDE isozymes were prepared to study the PDE inhibitory activities of and selectivities with the compound of the invention [Trends Pharmacol Sci., 12, 19-27 (1991)]. Type I PDE was purchased from Sigma Corp. Type III, IV, and V PDE isozymes were partially purified from platelets (Type III and V) or neutrophils (Type IV) collected from rats. Each enzyme source was homogenized in a buffer (pH 6.5) containing 20 mM bisTris, 2 mM EDTA (i.e., ethlenediamine tetraacetate), 2-mercaptoethanol, 0.001 mM pepstatin and 0.01 mM leupeptin and was centrifuged at 30000×G for 30 minutes to obtain a supernatant, which was applied to an ion exchange column (Q-sepharose first flow, Pharmacia Corp.) and was eluted with 0 to 1M sodium acetate. Partially purified isozymes were identified by observing the inhibitory effects of conventional inhibitors.
Each PDE isozyme and the test compound dissolved in DMSO (i.e., dimethylsulfoxide) were added to 50 mM Tris--HCI buffer containing 5 mM magnesium chloride. ^3 H-cAMP (for type III and IV PDE) or ^3 H-cGMP (for type I and V PDE) were added as substrates and were reacted at 30° C. for 30 minutes. The reaction was terminated by placing the test tube in boiling water of 100° C. for 5 minutes. The nucleotides formed by PDE were broken down to ^3 H-adenosine or ^3 H-guanosine by 5'-nucleotidase. The substrate and reaction product were separated through an ion-exchange column (i.e., QAE sephadex, Pharmacia Corp.)
The eluted ^3 -H-nucleoside was measured for its radioactivity by a liquid scintillation counter. The inhibitory activities of the compound of the present invention are shown by the IC50 value (M). Further, the inhibitory activities of the test samples against type I, III, and V PDE are 1/10 or less than that against Type IV PDE.

| Structure (SMILES) | % Inhibition of ear edema [1] | IC50 [2] |
| --- | --- | --- |
| COc1ccc(N(Cc2ccccc2)C2=CC(=O)CC2)cc1O[C@@H]1C[C@H]2CC[C@@H]1C2 (racemic) [Compound No. 81, 3-[N-benzyl-3-[(1RS,2RS,4SR)-bicyclo[2.2. 1]hept-2-yloxy]4-methoxyanilino]-2-cyclopenten-1-one] | 82.7% | 1000 nM |
| COc1ccc(NC2=C(C)C(=O)CC2)cc1OCC1CC1 [Compound No. 16, 3-(3-cyclopropylmethoxy-4-methoxyanilino)-2-methyl-2-cyclogenten-1-one] | 72.1% | 1000 nM |
| COc1ccc(NC2=C(C)C(=O)CC2)cc1O[C@@H]1C[C@H]2CC[C@@H]1C2 (racemic) [Compound No. 44, 3-[3-[(1RS,2RS,4SR)-bicyclo[2.2. 1]hept-2-yloxy]-4-methoxyanilino]-2-methyl-2-cyclopenten-1-one] | 74.1% | 220 nM |
| COc1ccc(NC2=C(C)C(=O)CCC2)cc1OCCC1Cc2ccccc2C1 [Compound No. 53, 3-[3-[2-(2-indanyl)ethoxy]-4-methoxyanilino]-2-methyl-2-cyclohexen-1-one] | 55.9% | 220 nM |
| COc1ccc(NC2=C(C)C(=O)CCC2)cc1OC1CCCCC1 [Compound No. 55, 3-(3-cyclohexyloxy-4-methoxyanilino)-2-methyl-2-cyclohexen-1-one] | 70.8% | 2000 nM |
| COc1ccc(N(Cc2ccc3ccccc3n2)C2=CC(=O)CC2)cc1O[C@@H]1C[C@H]2CC[C@@H]1C2 (relative stereo) [Compound No. 82, 3-[3-[(1RS,2RS,4SR)-bicyclo[2.2. 1]hept-2-yloxy]4-methoxy-N-(2-quinolinemethyl)anilino]-2-cyclopenten-1-one] | 84.4% | 530 nM |
| COc1ccc(N(C2=CC(=O)CC2)C2CCCC2)cc1OC1CCCC1 [Compound No. 60, 3-(N-cyclopentyl-3-cyclopentyloxy-4-methoxyanilino)-2-cyclopenten-1-one] | 78.5% | 44000 nM |
| COc1ccc(N(C)C2=CC(=O)CC2)cc1OC1CCCC1 [Compound No. 26, 3-(3-cyclopentyloxy-4-methoxy-N-methylanilino)-2-cyclopenten-1-one] | 82.0% | 800 nM |
| COc1ccc(NC2=CC(=O)CC2)cc1OC1CCCCC1 [Compound No. 13, 3-(3-cyclohexyloxy-4-methoxyanilino)-2-cyclopenten-1-one] | 51.8% | 7400 nM |
| COc1ccc(N(C)C2=C(C)C(=O)CC2)cc1O[C@@H]1C[C@H]2CC[C@@H]1C2 (racemic) [Compound No. 47, 3-[3-[(1RS,2RS,4SR)-bicyclo[2.2. 1]hept-2-yloxy]4-methoxy-N-methylanilino]-2-methyl-2-cyclopenten-1-one] | 59.9% | 1600 nM |
| COc1ccc(N(Cc2ccc3ccccc3n2)C2=CC(=O)CC2)cc1OC1CCCC1 [Compound No. 58, 3-[3-cyclopentyloxy-4-methoxy-N-(2-quinolylemethyl)anilino]-2-cyclopenten-1-one] | 58.7% | 530 nM |
| COc1ccc(N(Cc2ccncc2)C2=C(C)C(=O)CC2)cc1OC1Cc2ccccc2C1 [Compound No. 73, 3-[3-(2-indanyloxy)-4-methoxy-N-(4-pyridylmethyl)anilino]-2-methyl-2-cyclopenten-1-one] | 54.3% | 3200 nM |
| COc1ccc(NC2=C(C)C(=O)CC2)cc1OC1CCOC1 (stereo not shown) [Compound No. 37, 3-[4-methoxy-3-(3-2,3,4,5-tetrahydrofuranyloxy)anilino]-2-methyl-2-cyclopenten-1-one] | 51.8% | 1200 nM |
| CCC1=C(Nc2ccc(OC)c(OC3CCCC3)c2)CCC1=O [Compound No. 31, 3-(3-cyclopentyloxy-4-methoxyanilino)-2-ethyl-2-cyclopenten-1-one] | 73.4% | 220 nM |
